The values that follow come from patent publication US9730940B2, “Purine inhibitors of human phosphatidylinositol 3-kinase delta” (priority 2012, dated 2017).

SMILES strings stand for the structures. Bounds are passed on as bounds.

For the experiment, the target named is PI3K-alpha (Homo sapiens (Human), UniProt P42336). Kind of experiment: HTRF PI3K biochemical assay, alpha isoform. The following applies: ratio PI3K-alpha IC50 value/PI3K-delta IC50 value.
Sequence of PI3K-alpha (P42336 whole entry, looked up, canonical isoform): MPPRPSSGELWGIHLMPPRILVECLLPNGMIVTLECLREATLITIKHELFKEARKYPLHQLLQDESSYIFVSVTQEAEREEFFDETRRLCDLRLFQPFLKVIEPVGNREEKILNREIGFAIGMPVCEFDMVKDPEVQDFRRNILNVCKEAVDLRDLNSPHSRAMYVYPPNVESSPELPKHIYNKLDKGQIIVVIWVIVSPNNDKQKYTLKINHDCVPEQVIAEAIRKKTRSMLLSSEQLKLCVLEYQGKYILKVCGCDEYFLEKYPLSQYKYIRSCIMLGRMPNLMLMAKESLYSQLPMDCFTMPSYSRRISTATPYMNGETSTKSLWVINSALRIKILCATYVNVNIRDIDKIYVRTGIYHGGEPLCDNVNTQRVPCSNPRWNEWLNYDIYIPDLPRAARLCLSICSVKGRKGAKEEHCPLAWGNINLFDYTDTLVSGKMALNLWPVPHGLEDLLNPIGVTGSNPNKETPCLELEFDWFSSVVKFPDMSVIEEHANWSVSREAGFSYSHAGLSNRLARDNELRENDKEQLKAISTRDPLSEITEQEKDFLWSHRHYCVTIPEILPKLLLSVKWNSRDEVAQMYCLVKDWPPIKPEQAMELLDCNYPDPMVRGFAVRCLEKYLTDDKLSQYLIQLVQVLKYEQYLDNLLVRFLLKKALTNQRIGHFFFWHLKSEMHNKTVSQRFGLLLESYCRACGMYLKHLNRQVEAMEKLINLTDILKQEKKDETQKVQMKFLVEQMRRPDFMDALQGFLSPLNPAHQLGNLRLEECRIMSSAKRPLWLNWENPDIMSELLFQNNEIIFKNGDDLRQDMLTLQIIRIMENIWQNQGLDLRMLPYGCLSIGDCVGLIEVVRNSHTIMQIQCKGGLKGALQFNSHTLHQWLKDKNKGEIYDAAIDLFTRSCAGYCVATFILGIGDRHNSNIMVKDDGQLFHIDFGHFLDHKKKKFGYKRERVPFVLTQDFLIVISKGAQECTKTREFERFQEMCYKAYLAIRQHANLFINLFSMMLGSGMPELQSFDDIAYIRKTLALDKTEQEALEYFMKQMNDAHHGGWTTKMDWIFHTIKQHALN
Sequence of PI3K-alpha (P27986 whole entry partner, looked up, canonical isoform): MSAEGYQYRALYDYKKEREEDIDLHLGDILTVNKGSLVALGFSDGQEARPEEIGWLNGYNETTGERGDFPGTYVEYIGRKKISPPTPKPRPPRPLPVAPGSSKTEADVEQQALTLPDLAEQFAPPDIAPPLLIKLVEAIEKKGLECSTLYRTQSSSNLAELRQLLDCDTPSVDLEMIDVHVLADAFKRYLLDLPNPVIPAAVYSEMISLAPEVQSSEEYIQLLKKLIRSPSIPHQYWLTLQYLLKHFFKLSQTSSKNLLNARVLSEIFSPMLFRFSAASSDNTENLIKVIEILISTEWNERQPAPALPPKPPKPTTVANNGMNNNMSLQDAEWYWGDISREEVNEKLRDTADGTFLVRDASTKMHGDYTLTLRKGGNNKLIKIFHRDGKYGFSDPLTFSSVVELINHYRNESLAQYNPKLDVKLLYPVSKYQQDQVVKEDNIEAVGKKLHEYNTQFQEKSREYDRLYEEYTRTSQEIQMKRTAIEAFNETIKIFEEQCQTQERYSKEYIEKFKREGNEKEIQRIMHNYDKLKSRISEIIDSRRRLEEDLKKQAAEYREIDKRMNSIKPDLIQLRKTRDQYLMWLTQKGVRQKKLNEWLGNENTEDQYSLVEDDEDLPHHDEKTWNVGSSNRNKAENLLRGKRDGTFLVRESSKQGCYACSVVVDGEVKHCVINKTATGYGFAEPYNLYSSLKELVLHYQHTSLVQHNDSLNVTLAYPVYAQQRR
Take `CCn1ncc(-c2nc3c(O[C@H]4CCN(c5nccc(-c6ccco6)n5)C4)ncnc3n2C)c1C` [Compound 7-10, 8-(1-ethyl-5-methyl-1H-pyrazol-4-yl)-6-{[(3S)-1-(4-furan-2-ylpyrimidin-2-yl)pyrrolidin-3-yl]oxy}-9-methyl-9H-purine]: the “Relative Selectivity versus PI3Kalpha” value was over 10.

For `CCn1ncc(-c2nc3c(O[C@H]4CCN(c5cncc(C)n5)C4)ncnc3n2C)c1C` [Compound 7-11, 8-(1-ethyl-5-methyl-1H-pyrazol-4-yl)-9-methyl-6-{[(3S)-1-(6-methylpyrazin-2-yl)pyrrolidin-3-yl]oxy}-9H-purine], the “Relative Selectivity versus PI3Kalpha” value was over 10.

As for `CCn1ncc(-c2nc3c(O[C@H]4CCN(c5ncnc6sc(C)c(C)c56)C4)ncnc3n2C)c1C` [Compound 7-12, 6-{[(3S)-1-(5,6-dimethylthieno[2,3-d]pyrimidin-4-yl)pyrrolidin-3-yl]oxy}-8-(1-ethyl-5-methyl-1H-pyrazol-4-yl)-9-methyl-9H-purine], the “Relative Selectivity versus PI3Kalpha” value is over 10.

With `CCn1ncc(-c2nc3c(O[C@H]4CCN(c5ncnc6sccc56)C4)ncnc3n2C)c1C` [Compound 7-13, 8-(1-ethyl-5-methyl-1H-pyrazol-4-yl)-9-methyl-6-{[(3S)-1-thieno[2,3-d]pyrimidin-4-ylpyrrolidin-3-yl]oxy}-9H-purine], the “Relative Selectivity versus PI3Kalpha” value is listed as over 10.

With `CCn1ncc(-c2nc3c(O[C@H]4CCN(c5ncnc6c5cnn6C)C4)ncnc3n2C)c1C` [Compound 7-14, 4-[(3S)-3-{[8-(1-ethyl-5-methyl-1H-pyrazol-4-yl)-9-methyl-9H-purin-6-yl]oxy}pyrrolidin-1-yl]-1-methyl-1H-pyrazolo[3,4-d]pyrimidine], the “Relative Selectivity versus PI3Kalpha” value is listed as over 10.

In the case of `CCn1ncc(-c2nc3c(O[C@H]4CCN(c5cc(-n6cccn6)ncn5)C4)ncnc3n2C)c1C` [Compound 7-15, 8-(1-ethyl-5-methyl-1H-pyrazol-4-yl)-9-methyl-6-({(3S)-1-[6-(1H-pyrazol-1-yl)pyrimidin-4-yl]pyrrolidin-3-yl}oxy)-9H-purine], the “Relative Selectivity versus PI3Kalpha” value is given as over 10.

As to `CCn1c(-c2cnc(C)nc2)nc2c(O[C@H]3CCN(c4ccccc4C)C3)ncnc21` [Compound 7-16, 9-ethyl-6-{[(3S)-1-(2-methylphenyl)pyrrolidin-3-yl]oxy}-8-(2-methylpyrimidin-5-yl)-9H-purine], the “Relative Selectivity versus PI3Kalpha” value was over 10.

Turning to `CCn1c(-c2cnc(C)nc2)nc2c(O[C@H]3CCN(c4ccccn4)C3)ncnc21` [Compound 7-17, 9-ethyl-8-(2-methylpyrimidin-5-yl)-6-{[(3S)-1-pyridin-2-ylpyrrolidin-3-yl]oxy}-9H-purine], the “Relative Selectivity versus PI3Kalpha” value is reported as over 10.

Consider `CCn1c(-c2cnc(C)nc2)nc2c(O[C@H]3CCN(c4cc(C)ccn4)C3)ncnc21` [Compound 7-18, 9-ethyl-6-{[(3S)-1-(4-methylpyridin-2-yl)pyrrolidin-3-yl]oxy}-8-(2-methylpyrimidin-5-yl)-9H-purine], for which the “Relative Selectivity versus PI3Kalpha” value is on record as over 10.

`CCn1c(-c2cnc(C)nc2)nc2c(O[C@H]3CCN(c4ccccc4)C3)ncnc21` [Compound 7-19, 9-ethyl-8-(2-methylpyrimidin-5-yl)-6-{[(3S)-1-phenylpyrrolidin-3-yl]oxy}-9H-purine]: the “Relative Selectivity versus PI3Kalpha” value is reported as over 10.

In the case of `CCn1c(-c2cnc(C)nc2)nc2c(O[C@H]3CCN(c4ccc(F)cc4)C3)ncnc21` [Compound 7-20, 9-ethyl-6-{[(3S)-1-(4-fluorophenyl)pyrrolidin-3-yl]oxy}-8-(2-methylpyrimidin-5-yl)-9H-purine], the “Relative Selectivity versus PI3Kalpha” value is over 10.

Turning to `CCn1c(-c2cnc(C)nc2)nc2c(O[C@H]3CCN(c4cccc(F)c4)C3)ncnc21` [Compound 7-21, 9-ethyl-6-{[(3S)-1-(3-fluorophenyl)pyrrolidin-3-yl]oxy}-8-(2-methylpyrimidin-5-yl)-9H-purine], the “Relative Selectivity versus PI3Kalpha” value was over 10.

For `CCn1c(-c2cnc(C)nc2)nc2c(O[C@H]3CCN(c4nccs4)C3)ncnc21` [Compound 7-22, 9-ethyl-8-(2-methylpyrimidin-5-yl)-6-{[(3S)-1-(1,3-thiazol-2-yl)pyrrolidin-3-yl]oxy}-9H-purine], the “Relative Selectivity versus PI3Kalpha” value is over 10.

Take `CCn1c(-c2cnc(C)nc2)nc2c(O[C@H]3CCN(c4cncnc4)C3)ncnc21` [Compound 7-23, 9-ethyl-8-(2-methylpyrimidin-5-yl)-6-{[(3S)-1-pyrimidin-5-ylpyrrolidin-3-yl]oxy}-9H-purine]: the “Relative Selectivity versus PI3Kalpha” value is reported as over 10.

Regarding `CCn1c(-c2cnc(C)nc2)nc2c(O[C@H]3CCN(c4cccnc4)C3)ncnc21` [Compound 7-24, 9-ethyl-8-(2-methylpyrimidin-5-yl)-6-{[(3S)-1-pyridin-3-ylprrolidin-3-yl]oxy}-9H-purine], the “Relative Selectivity versus PI3Kalpha” value is recorded as over 10.

`CCn1c(-c2cnc(C)nc2)nc2c(O[C@H]3CCN(c4ccc5cnoc5c4)C3)ncnc21` [Compound 7-25, 6-{[(3S)-1-(1,2-benzisoxazol-6-yl)pyrrolidin-3-yl]oxy}-9-ethyl-8-(2-methylpyrimidin-5-yl)-9H-purine]: the “Relative Selectivity versus PI3Kalpha” value was over 10.

For `CCn1c(-c2cnc(C)nc2)nc2c(O[C@H]3CCN(c4cnccn4)C3)ncnc21` [Compound 7-26, 9-ethyl-8-(2-methylpyrimidin-5-yl)-6-{[(3S)-1-pyrazin-2-ylpyrrolidin-3-yl]oxy}-9H-purine], the “Relative Selectivity versus PI3Kalpha” value is on record as over 10.

In the case of `CCn1c(-c2cnc(C)nc2)nc2c(O[C@H]3CCCN(c4ccccn4)C3)ncnc21` [Compound 7-27, 9-ethyl-8-(2-methylpyrimidin-5-yl)-6-{[(3S)-1-pyridin-2-ylpiperidin-3-yl]oxy}-9H-purine], the “Relative Selectivity versus PI3Kalpha” value was over 10.

For the compound `CCn1ncc(-c2nc3c(OC4CCC(C(=O)N5CCOCC5)C4)ncnc3n2C)c1C` (centres unmarked) [Compound 8-1], the “Relative Selectivity versus PI3Kalpha” value came to 9.

For `CCn1ncc(-c2nc3c(OC4CCC(NC(=O)C5CCOCC5)C4)ncnc3n2C)c1C` [Compound 9-3, cis-N-[(1S,3R)-3-{[8-(1-ethyl-5-methyl-1H-pyrazol-4-yl)-9-methyl-9H-purin-6-yl]oxy}cyclopentyl]tetrahydro-2H-pyran-4-carboxamide], the “Relative Selectivity versus PI3Kalpha” value is recorded as 8.

With `CCn1c(-c2cnc(C)nc2)nc2c(O[C@H]3C[C@@H](NC(=O)OC(C)(C)C)C3)ncnc21` [Compound 9-5, tert-butyl (cis-3-{[9-ethyl-8-(2-methylpyrimidin-5-yl)-9H-purin-6-yl]oxy}cyclobutyl)carbamate], the “Relative Selectivity versus PI3Kalpha” value is over 10.

Take `CCn1c(-c2cnc(C)nc2)nc2c(O[C@H]3C[C@H](NC(=O)OC(C)(C)C)C3)ncnc21` [Compound 9-6, tert-butyl (trans-3-{[9-ethyl-8-(2-methylpyrimidin-5-yl)-9H-purin-6-yl]oxy}cyclobutyl)carbamate]: the “Relative Selectivity versus PI3Kalpha” value was over 10.

For `CCC(=O)N[C@H]1CC[C@H](Oc2ncnc3c2nc(-c2cnc(C)nc2)n3CC)CC1` [Compound 9-7, N-(trans-4-{[9-ethyl-8-(2-methylpyrimidin-5-yl)-9H-purin-6-yl]oxy}cyclohexyl)propanamide], the “Relative Selectivity versus PI3Kalpha” value is recorded as over 10.

`CCn1c(-c2cnc(C)nc2)nc2c(O[C@H]3CC[C@@H](NC(=O)C4CC4)CC3)ncnc21` [Compound 9-8, N-(cis-4-{[9-ethyl-8-(2-methylpyrimidin-5-yl)-9H-purin-6-yl]oxy}cyclohexyl)cyclopropane carboxamide]: the “Relative Selectivity versus PI3Kalpha” value is given as over 10.

For `CCn1c(-c2cnc(C)nc2)nc2c(O[C@H]3C[C@H](NS(=O)(=O)CC)C3)ncnc21` [Compound 9-10, trans-N-(3-{[9-ethyl-8-(2-methylpyrimidin-5-yl)-9H-purin-6-yl]oxy}cyclobutyl) ethanesulfonamide], the “Relative Selectivity versus PI3Kalpha” value was over 10.

Turning to `CCn1ncc(-c2nc3c(S[C@H]4CCN(C(=O)OC(C)(C)C)C4)ncnc3n2C)c1C` [Compound 10-1, (S)-tert-butyl 3-((8-(1-ethyl-5-methyl-1H-pyrazol-4-yl)-9-methyl-9H-purin-6-yl)thio)pyrrolidine-1-carboxylate], the “Relative Selectivity versus PI3Kalpha” value is on record as over 10.

Consider `CCn1ncc(-c2nc3c(S(=O)(=O)[C@H]4CCN(C(=O)OC(C)(C)C)C4)ncnc3n2C)c1C` [Compound 10-2, (S)-tert-butyl 3-((8-(1-ethyl-5-methyl-1H-pyrazol-4-yl)-9-methyl-9H-purin-6-yl)sulfonyl)pyrrolidine-1-carboxylate], for which the “Relative Selectivity versus PI3Kalpha” value worked out at 8.

With `CCn1ncc(-c2nc3c(S[C@H]4CCN(C(=O)C5CCOCC5)C4)ncnc3n2C)c1C` [Compound 10-3, (S)-(3-((8-(1-ethyl-5-methyl-1H-pyrazol-4-yl)-9-methyl-9H-purin-6-yl)thio)pyrrolidin-1-yl)(tetrahydro-2H-pyran-4-yl)methanone], the “Relative Selectivity versus PI3Kalpha” value is given as over 10.

Consider `CCC(=O)N1CC[C@H](Sc2ncnc3c2nc(-c2cnn(CC)c2C)n3C)C1` [Compound 10-4, (S)-1-(3-((8-(1-ethyl-5-methyl-1H-pyrazol-4-yl)-9-methyl-9H-purin-6-yl)thio)pyrrolidin-1-yl)propan-1-one], for which the “Relative Selectivity versus PI3Kalpha” value is over 10.

As to `CCn1ncc(-c2nc3c(S(=O)(=O)[C@H]4CCN(C(=O)C5CCOCC5)C4)ncnc3n2C)c1C` [Compound 10-5, (S)-(3-((8-(1-ethyl-5-methyl-1H-pyrazol-4-yl)-9-methyl-9H-purin-6-yl)sulfonyl)pyrrolidin-1-yl)(tetrahydro-2H-pyran-4-yl)methanone], the “Relative Selectivity versus PI3Kalpha” value stood at 5.

Consider `CCC(=O)N1CC[C@H](S(=O)(=O)c2ncnc3c2nc(-c2cnn(CC)c2C)n3C)C1` [Compound 10-6, (S)-1-(3-((8-(1-ethyl-5-methyl-1H-pyrazol-4-yl)-9-methyl-9H-purin-6-yl)sulfonyl)pyrrolidin-1-yl)propan-1-one], for which the “Relative Selectivity versus PI3Kalpha” value worked out at 5.

`CCn1ncc(-c2nc3c(S[C@H]4CCN(C(=O)C5CC5)C4)ncnc3n2C)c1C` [Compound 10-7, (S)-cyclopropyl(3-((8-(1-ethyl-5-methyl-1H-pyrazol-4-yl)-9-methyl-9H-purin-6-yl)thio)pyrrolidin-1-yl)methanone]: the “Relative Selectivity versus PI3Kalpha” value is given as over 10.
